Format in all cases: cell-based
One test deals with 12R5-1. In words: Cell Growth Inhibition Assay (Cell Titer Glo, 3 days). As to conditions: Homo sapiens, 72 h, 12R5-1 (Compound A resistant clone), read-out: IC50, Single Agent (mean ± std). The protocol:
(§1) Melanoma A375 PF11 line was derived from A375 (ATCC). 12R5-1, 12R5-3, 12R8-1, 12R8-3, 16R5-2, 16R6-3 and 16R6-4 are single cell clones derived from mixed populations of A375 PF11 cells that were selected to grow in Compound A to concentrations of 1200 and 1600 nM. All lines were cultured in RPMI 1640 medium containing 10% fetal bovine serum (FBS).
(§2) All cells were cultured for a minimum of 72 hours prior to cell plating. Cells were assayed in a 96-well tissue culture plate (NUNC 136102) of RPMI medium containing 10% FBS for all cells at 1,000 cells per well. Approximately 24 hours after plating, cells were exposed to ten, three-fold serial dilutions of compound or the combination of the two agents at a constant molar to molar ratio of 1:10 Compound A to Compound B in RPMI media containing 10% FBS. Cells were incubated in the presence of compounds for 3 days. ATP levels were determined by adding Cell Titer Glo® (Promega) according to the manufacturer's protocol. Briefly, Cell Titer Glo® was added each plate, incubated for 30 minutes then luminescent signal was read on the SpectraMax L plate reader with a 0.5 sec integration time.
(§3) Inhibition of cell growth was estimated after treatment with compound or combination of compounds for three days and comparing the signal to cells treated with vehicle (DMSO). Cell growth was calculated relative to vehicle (DMSO) treated control wells. Concentration of compound that inhibits 50% of control cell growth (IC50) was interpolated when y=50% of the vehicle control using nonlinear regression with the equation, y=(A+(B−A)/(1+(C/x)̂D))), where A is the minimum response (ymin), B is the maximum response (ymax), C is the inflection point of the curve (EC50) and D is the Hill coefficient.
(§4) Combination effects on potency were evaluated using Combination Index (CI) which was calculated with the back-interpolated IC50 values and the mutually non-exclusive equation derived by Chou and Talalay (Chou T C, Talalay P. Quantitative analysis of dose-effect relationships: the combined effects of multiple drugs or enzyme inhibitors. Adv Enzyme Regul 1984; 22:27-55.) A detailed description of the CI is found above. In general, a CI value <0.9, between 0.9 and 1.1, or >1.1 indicates synergy, additivity and antagonism, respectively. In general, the smaller the CI number, the greater is the strength of synergy.
(§5) The combination effects on the response scale were quantified by Excess Over Highest Single Agent (EOHSA) based on the concept of nonlinear blending as described in detail by Peterson and Novick (2007) and Peterson (2010) [Peterson J J, Novick S J. J Recept Signal Transduct Res 2007; 27(2-3):125-46, Peterson J. Frontiers of Bioscience S2, 483-503. 2010] EOHSA values are defined as increases in improvement (here, in ‘percentage points’ (ppts) difference) produced by the combination over the best single agent at its component dose level for the combination. Details on the calculation of EOHSA can be found above. For single agent and combination treatments, cells were exposed to compounds at a fixed-dose-ratio, and dose response curves were fit to the experimental data and analyzed using regression models. At specified total dose levels of IC50 along the dose response curve, the dose combination (corresponding to IC50) was determined for making EOHSA statistical inferences. More specifically, for a combination drug experiment involving drug 1 at dose d1 and drug 2 at dose d2, (i.e., total dose equals d1+d2) is said to have a positive EOHSA if the mean response at the combination is better than the mean response to drug 1 at dose d1 […] drug 2 at dose d2.
On the technique in general: In ATP-based viability assays light output follows the ATP content of the culture.

The next test has as its system 12R5-3. The test is described as above. The note with it: Homo sapiens, 72 h, 12R5-3 (Compound A resistant clone), read-out: IC50, Single Agent (mean ± std). The procedure:
as §1, §2, §3, §4, §5

A further test concerns 12R8-1. The test is described as above. As to conditions: Homo sapiens, 72 h, 12R8-1 (Compound A resistant clone), read-out: IC50, Single Agent (mean ± std). The procedure: as §1, §2, §3, §4, §5
For a further test, the system named is 12R8-3. The description is as above. The note with it: Homo sapiens, 72 h, 12R8-3 (Compound A resistant clone), read-out: IC50, Single Agent (mean ± std). The protocol:
as §1, §2, §3, §4, §5

Another test has as its system 16R5-2. Described as above. As to conditions: Homo sapiens, 72 h, 16R5-2 (Compound A resistant clone), read-out: IC50, Single Agent (mean ± std). The procedure:
as §1, §2, §3, §4, §5

For the next test, the system named is 16R6-3. The description is as above. The note with it: Homo sapiens, 72 h, 16R6-3 (Compound A resistant clone), read-out: IC50, Single Agent (mean ± std). The procedure:
as §1, §2, §3, §4, §5

For the next test, the system named is 16R6-4. The description is as above. The note with it: Homo sapiens, 72 h, 16R6-4 (Compound A resistant clone), read-out: IC50, Single Agent (mean ± std). The procedure: as §1, §2, §3, §4, §5
The next test relates to A375PF11. The test is described as above. The note with it: Homo sapiens, A375P-F11, 72 h, A375PF11 (BRAF_V600E), read-out: IC50, Single Agent (mean ± std). The procedure: as §1, §2, §3, §4, §5
Test [1] deals with seven Compound A resistant clones derived from the A375 PF11 melanoma cell line. In words: Cell Growth Inhibition Assay, summary over resistant clones. As to conditions: Homo sapiens, A375P-F11, 72 h, 3 days, read-out: IC50s, Compound B alone, range over clones. The protocol:
as §1, §2
Inhibition of cell growth was estimated after treatment with compound or combination of compounds for three days and comparing the signal to cells treated with vehicle (DMSO). Cell growth was calculated relative to vehicle (DMSO) treated control wells. […]

Some results are limits rather than exact numbers.

Turning to `CC(C)(C)c1nc(-c2cccc(NS(=O)(=O)c3c(F)cccc3F)c2F)c(-c2ccnc(N)n2)s1` [Compound A, N-{3-[5-(2-amino-4-pyrimidinyl)-2-(1,1-dimethylethyl)-1,3-thiazol-4-yl]-2-fluorophenyl}-2,6-difluorobenzenesulfonamide], the IC50 with 12R5-1, in the test with 12R5-3, in the test with 12R8-1, in the test on 12R8-3, in the test on 16R5-2 and in the test on 16R6-3 was over 10000 nM throughout. The IC50 in the test on 16R6-4 was over 10000 nM; in the test on A375PF11, 59 nM.

For the compound `COc1ncc(-c2ccc3nccc(-c4ccnnc4)c3c2)cc1NS(=O)(=O)c1ccc(F)cc1F` [Compound B, 2,4-difluoro-N-{2-(methyloxy)-5-[4-(4-pyridazinyl)-6-quinolinyl]-3-pyridinyl}benzenesulfonamide], the IC50 came out at 212 ± 38 nM with 12R5-1; 88 ± 2 nM in the test with 12R5-3; 103 ± 16 nM in the test on 12R8-1; 129 ± 24 nM with 12R8-3; 41 ± 18 nM in the test with 16R5-2; 80 ± 17 nM in the test with 16R6-3. Besides, the IC50 is 61 ± 10 nM in the test with 16R6-4, 48 nM in the test with A375PF11 and 41 to 212 nM in test [1].

The record behind these values is patent US20120202822A1, “COMBINATION” (priority 2009, published 2012).
